# Read-outs that look alike come from different tables or passages of the source.
# Legend:
# USPSa-S244A = assay: MicroScale Thermophoresis (initial fluorescence change) nucleotide binding; parameters: species or system Staphylococcus aureus; settings: S244A mutant
# Description: (§1) The ligand-binding specificity of USPSa, the role of USPSa residues in c-di-AMP binding, and the c-di-AMP binding affinity of USP homologs were biochemically determined by MST, using purified WT and mutant proteins. […] For these MST experiments, WT and active-site mutants of His6-USPSa were first fluorescently labeled using a RED-Tris NTA Monolith His-Tag labeling kit (Nanotemper, Technologies, Inc). For labeling, the proteins were diluted to a concentration of 800 nM in binding buffer (50 mM potassium phosphate, pH 8.0, 800 mM NaCl, and 0.05% Tween 20), mixed with an equal volume of RED-Tris-NTA dye (80 nM), and incubated on ice in the dark for 30 min. The stock solutions of ligands (c-di-AMP, c-di-GMP, ATP, AMP, c-AMP) were serially diluted with the binding buffer in a 1:1 ratio during each dilution step. The labeled proteins and the ligand dilutions were then mixed in a 1:1 ratio and incubated on ice in the dark for 30 min.
# (§2) The samples were then loaded into Monolith standard-treated capillaries in triplicate, and the changes in fluorescence were measured with 40% LED power and 20% IR-laser power for an on-time of 20-s at 23 °C. To determine the binding affinity, the ligand-dependent changes in the intensity of the initial fluorescence, or the thermophoretic mobility, were analyzed according to the law of mass action in a standard fitting mode of MO.Affinity analysis software (version 2.3). To exclude the possibility of nonspecific binding of the ligand to the His6-tag (on USPSa) or ligand-induced USP adsorption to labware or due to aggregation, we performed His6-peptide and EDTA tests, respectively ([91]). In the His6-peptide test, a control His6-peptide was used instead of USP in the binding assay described above, and if no change in initial fluorescence occurred, this confirmed the USP-specific binding of ligands. In the EDTA test, the binding buffer additionally contained 50 mM EDTA to disrupt the interaction between His6-USP and the RED-Tris-NTA dye. The complete loss of the ligand-induced initial fluorescence change in this assay confirmed that this change was neither because of protein aggregation nor because of protein adsorption to labware.
# (§3) The Ka values of WT USPSa for c-di-AMP or AMP were set to 100% relative affinity, and the binding affinities of the other nucleotides (Fig. 1C), or USPSa mutants (Fig. 4E), or USP homologs (Fig. 6, B and C) were depicted as percent values compared with the values of the WT USPSa.
# USPSa-H331A = target: T1, USPSa-H331A (Staphylococcus aureus, UniProt A0A7U7EVR3, H331A); assay: as above
# T1 sequence (A0A7U7EVR3 213-364 H331A): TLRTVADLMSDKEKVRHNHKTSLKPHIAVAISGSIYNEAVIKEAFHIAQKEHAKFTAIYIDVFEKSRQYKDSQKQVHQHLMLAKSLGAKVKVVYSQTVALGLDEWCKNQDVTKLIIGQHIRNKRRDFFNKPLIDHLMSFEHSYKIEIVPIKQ
# Description: as §1, §2, §3
# USPSa-S246A = target: T2, USPSa-S246A (Staphylococcus aureus, UniProt A0A7U7EVR3, S246A); assay: as above; settings: S246A mutant
# T2 sequence (A0A7U7EVR3 213-364 S246A): T1 sequence (A0A7U7EVR3 213-364 H331A)
# Description: as §1, §2, §3
# USPSa-A242G = target: T3, USPSa-A242G (Staphylococcus aureus, UniProt A0A7U7EVR3, A242G); assay: as above; settings: A242G mutant
# T3 sequence (A0A7U7EVR3 213-364 A242G): T1 sequence (A0A7U7EVR3 213-364 H331A)
# Description: as §1, §2, §3
# USPSa-L344A = target: T4, USPSa-L344A (Staphylococcus aureus, UniProt A0A7U7EVR3, L344A); assay: as above; settings: L344A mutant
# T4 sequence (A0A7U7EVR3 213-364 L344A): T1 sequence (A0A7U7EVR3 213-364 H331A)
# Description: as §1, §2, §3
# USPSa-S244D = target: T5, USPSa-S244D (Staphylococcus aureus, UniProt A0A7U7EVR3, S244D); assay: as above; settings: S244D mutant
# T5 sequence (A0A7U7EVR3 213-364 S244D): T1 sequence (A0A7U7EVR3 213-364 H331A)
# Description: as §1, §2, §3
# USPSa-Y248A = target: T6, USPSa-Y248A (Staphylococcus aureus, UniProt A0A7U7EVR3, Y248A); assay: as above; settings: Y248A mutant
# T6 sequence (A0A7U7EVR3 213-364 Y248A): T1 sequence (A0A7U7EVR3 213-364 H331A)
# Description: as §1, §2, §3
# USPSa-K282A = USPSa-K282A (Staphylococcus aureus, UniProt A0A7U7EVR3, K282A); assay: as above; settings: K282A mutant, MST, read-out: Dissociation Constant (KD) ± Standard Deviation
# Description: as §1, §2, §3
# USPSa-Y281F = target: T7, USPSa-Y281F (Staphylococcus aureus, UniProt A0A7U7EVR3, Y281F); assay: as above; settings: Y281F mutant
# T7 sequence (A0A7U7EVR3 213-364 Y281F): T1 sequence (A0A7U7EVR3 213-364 H331A)
# Description: as §1, §2, §3
# USPSa-N249A = target: T8, USPSa-N249A (Staphylococcus aureus, UniProt A0A7U7EVR3, N249A); assay: as above; settings: N249A mutant; MST, initial fluorescence; read-out: Dissociation Constant (KD) ± Standard Deviation
# T8 sequence (A0A7U7EVR3 213-364 N249A): T1 sequence (A0A7U7EVR3 213-364 H331A)
# Description: as §1, §2, §3
# USPSa-Q280A = USPSa-Q280A (Staphylococcus aureus, UniProt A0A7U7EVR3, Q280A); assay: as above; settings: Q280A mutant, MST, read-out: Dissociation Constant (KD) ± Standard Deviation
# Description: as §1, §2, §3
# USPSa-K277A = target: T9, USPSa-K277A (Staphylococcus aureus, UniProt A0A7U7EVR3, K277A); assay: MicroScale Thermophoresis (thermophoretic mobility change) nucleotide binding; settings: K277A mutant
# T9 sequence (A0A7U7EVR3 213-364 K277A): T1 sequence (A0A7U7EVR3 213-364 H331A)
# Description: as §1, §2, §3
# USPSa-WT [1] = target: T10, USPSa-WT (Staphylococcus aureus, UniProt A0A7U7EVR3); assay: as above; settings: MST, change in thermophoretic mobility, read-out: Dissociation Constant (KD) ± Standard Deviation
# Description: as §1, §2, §3
# USPSa-R279A = USPSa-R279A (Staphylococcus aureus, UniProt A0A7U7EVR3, R279A); assay: as above; settings: R279A mutant; MST, change in thermophoretic mobility; read-out: Dissociation Constant (KD) ± Standard Deviation
# Description: as §1, §2, §3
# USPSa-WT [2] = target: T10, USPSa-WT; assay: biochemical; format: binding; settings: for Kd: Dissociation Constant (KD) ± Standard Deviation, changes in initial fluorescence
# Description: For labeling, the proteins were diluted to a concentration of 800 nM in binding buffer (50 mM potassium phosphate, pH 8.0, 800 mM NaCl, and 0.05% Tween 20), mixed with an equal volume of RED-Tris-NTA dye (80 nM), and incubated on ice in the dark for 30 min. […] The labeled proteins and the ligand dilutions were then mixed in a 1:1 ratio and incubated on ice in the dark for 30 min.
# as §2, with “In the His6-peptide test, a control His6-peptide was used instead of USP in the binding assay described above, and if no change in initial fluorescence occurred, this confirmed the USP-specific binding of ligands.” left out, “dye.” for “dye. The complete loss of the ligand-induced initial fluorescence change in this assay confirmed that this change was neither because of protein aggregation nor because of protein adsorption to labware.”
# [3] = Ka relative to WT USPSa set to 100%
# [4] = MST, initial fluorescence, read-out: Dissociation Constant (KD) ± Standard Deviation
structure (smiles),measurement,setting,value
Nc1ncnc2c1ncn2[C@@H]1O[C@H](COP(=O)(O)O)[C@@H](O)[C@H]1O [AMP],binding in MST analysis (in words),USPSa-S244A,did not bind
same,Dissociation Constant (KD) ± Standard Deviation,"USPSa-S244A; MST, initial fluorescence",No Binding Observed
same,Kd,"USPSa-H331A; H331A mutant, MST, initial fluorescence, read-out: Dissociation Constant (KD) ± Standard Deviation",4.13 ± 0.11 mM
same,loss of relative binding affinity,"USPSa-H331A; His331 to Ala mutant, relative to WT USPSa",~60%
same,relative binding affinity,USPSa-S246A; [3],~40%
same,Kd,USPSa-S246A; [4],7.25 ± 0.21 mM
same,improvement of binding affinity versus WT USPSa,USPSa-A242G,~25 fold
same,Kd,USPSa-A242G; [4],0.14 ± 0.01 mM
same,relative affinity,USPSa-L344A; [3],40%
same,Kd,USPSa-L344A; [4],4.14 ± 0.9 mM
same,relative binding affinity,USPSa-S244D; [3],~50%
same,Kd,USPSa-S244D; [4],4.06 ± 1.94 mM
same,relative affinity,USPSa-Y248A; [3],~60%
same,Kd,USPSa-Y248A; [4],5.4 ± 3.81 mM
same,Kd,USPSa-K282A,1.45 ± 0.64 mM
same,binding relative to WT USPSa,USPSa-Y281F; [3],~30%
same,Kd,USPSa-Y281F; [4],5.15 ± 0.35 mM
same,Kd,USPSa-N249A,5.17 ± 3.42 mM
same,Kd,USPSa-Q280A,1.82 ± 0.25 mM
same,relative binding affinity,USPSa-K277A; [3],~45%
same,Kd,"USPSa-K277A; MST, change in thermophoretic mobility, read-out: Dissociation Constant (KD) ± Standard Deviation",50.7 ± 4.03 mM
same,Kd,USPSa-WT [1],20.7 ± 4.4 mM
same,Kd,USPSa-R279A,14.4 ± 0.95 mM
same,Kd,"USPSa-WT [2]; His6-USPSa WT, MST",2.65 ± 1.16 mM
same,"binding affinity, fold lower than that of c-di-AMP","USPSa-WT [2]; His6-USPSa WT, MST",> 5000 fold
"Nc1ncnc2c1ncn2[C@@H]1O[C@H](COP(=O)(O)OP(=O)(O)OP(=O)(O)O)[C@@H](O)[C@H]1O [ATP, adenosine triphosphate]","binding affinity, fold lower than that of c-di-AMP",USPSa-WT [2],> 5000 fold
same,Kd,"USPSa-WT [2]; His6-USPSa WT, MST",5.15 ± 0.07 mM
"Nc1ncnc2c1ncn2[C@@H]1O[C@@H]2COP(=O)(O)O[C@H]2[C@H]1O [c-AMP, cyclic AMP]",Kd,"USPSa-WT [2]; His6-USPSa WT, MST",10 ± 0.71 mM
